From ChEMBL document CHEMBL3885881, “DrugMatrix”

Species: Rattus norvegicus
Assay: DrugMatrix - Regimen: Daily Repeat
Assay type: toxicity, organism-based, Sprague-Dawley
Design: regimen Daily Repeat, gender Male, age 6-8 weeks
Conditions: in vivo, sc, route subcutaneous, […]; for ABSOLUTE BASOPHIL / ABSOLUTE EOSINOPHIL / ABSOLUTE LYMPHOCYTE / ABSOLUTE MONOCYTE / ABSOLUTE SEGMENTED NEUTROPHIL / BASOPHIL / EOSINOPHIL / ERYTHROCYTE COUNT / HEMATOCRIT / HEMOGLOBIN / LEUKOCYTE COUNT / LYMPHOCYTE / MEAN CORPUSCULAR HEMOGLOBIN / MEAN CORPUSCULAR HEMOGLOBIN CONCENTRATION / MEAN CORPUSCULAR VOLUME / MONOCYTE / NEUTROPHIL / NUCLEATED RED BLOOD CELLS / PLATELET COUNT: tissue Blood; for ALANINE AMINOTRANSFERASE / ALBUMIN / ALKALINE PHOSPHATASE / ASPARTATE AMINOTRANSFERASE / BLOOD UREA NITROGEN / CARBON DIOXIDE / CHLORIDE / CHOLESTEROL / CREATINE PHOSPHOKINASE / CREATININE / GLUCOSE / LACTATE DEHYDROGENASE / LIPASE / PHOSPHORUS / POTASSIUM / SODIUM / TOTAL BILIRUBIN / TOTAL PROTEIN / URIC ACID: tissue Plasma
[1] = 0 mg/kg, 72 h, dose level Control, time 3 day
[2] = 0 mg/kg, 120 h, dose level Control, time 5 day
[3] = 1915 mg/kg, 72 h, dose level High, time 3 day
[4] = 1915 mg/kg, 120 h, dose level High, time 5 day

Cc1cc(O)cc(C)c1Cl [CHLOROXYLENOL]
ABSOLUTE BASOPHIL [1]: 0 CELLS/uL | ABSOLUTE EOSINOPHIL [1]: 92.33 CELLS/uL | ABSOLUTE LYMPHOCYTE [1]: 12247.5 CELLS/uL | ABSOLUTE MONOCYTE [1]: 389.67 CELLS/uL | ABSOLUTE SEGMENTED NEUTROPHIL [1]: 1320.5 CELLS/uL | BASOPHIL [1]: 0% | EOSINOPHIL [1]: 0.67% | ERYTHROCYTE COUNT [1]: 5.45 x10E6/uL | HEMATOCRIT [1]: 34.85% | HEMOGLOBIN [1]: 12.97 G/DL | LEUKOCYTE COUNT [1]: 14.05 x10E3/uL | LYMPHOCYTE [1]: 87.33% | MEAN CORPUSCULAR HEMOGLOBIN [1]: 23.78 pg | MEAN CORPUSCULAR HEMOGLOBIN CONCENTRATION [1]: 37.22 G/DL | MEAN CORPUSCULAR VOLUME [1]: 63.93 fL | MONOCYTE [1]: 2.67% | NEUTROPHIL [1]: 9.33% | NUCLEATED RED BLOOD CELLS [1]: 0 /100WBC | PLATELET COUNT [1]: 1174 x10E3/uL | ALANINE AMINOTRANSFERASE [1]: 48.83 u/L | ALBUMIN [1]: 4.23 G/DL | ALKALINE PHOSPHATASE [1]: 351.5 u/L | ASPARTATE AMINOTRANSFERASE [1]: 90 u/L | BLOOD UREA NITROGEN [1]: 15.33 mg/dL | CARBON DIOXIDE [1]: 23 mmol/L | CHLORIDE [1]: 103.5 MEQ/L | CHOLESTEROL [1]: 70.5 mg/dL | CREATINE PHOSPHOKINASE [1]: 651.83 u/L | CREATININE [1]: 0.22 mg/dL | GLUCOSE [1]: 180.67 mg/dL | LACTATE DEHYDROGENASE [1]: 165 u/L | LIPASE [1]: 9.33 u/L | PHOSPHORUS [1]: 12.03 mg/dL | POTASSIUM [1]: 6.17 MEQ/L | SODIUM [1]: 142.62 MEQ/L | TOTAL BILIRUBIN [1]: 0.2 mg/dL | TOTAL PROTEIN [1]: 5.73 G/DL | URIC ACID [1]: 1.77 mg/dL | ABSOLUTE BASOPHIL [2]: 0 CELLS/uL | ABSOLUTE EOSINOPHIL [2]: 0 CELLS/uL | ABSOLUTE LYMPHOCYTE [2]: 12736.67 CELLS/uL | ABSOLUTE MONOCYTE [2]: 253.5 CELLS/uL | ABSOLUTE SEGMENTED NEUTROPHIL [2]: 1193.17 CELLS/uL | BASOPHIL [2]: 0% | EOSINOPHIL [2]: 0% | ERYTHROCYTE COUNT [2]: 5.72 x10E6/uL | HEMATOCRIT [2]: 36.05% | HEMOGLOBIN [2]: 13.62 G/DL | LEUKOCYTE COUNT [2]: 14.18 x10E3/uL | LYMPHOCYTE [2]: 89.33% | MEAN CORPUSCULAR HEMOGLOBIN [2]: 23.83 pg | MEAN CORPUSCULAR HEMOGLOBIN CONCENTRATION [2]: 37.8 G/DL | MEAN CORPUSCULAR VOLUME [2]: 63.05 fL | MONOCYTE [2]: 1.83% | NEUTROPHIL [2]: 8.83% | NUCLEATED RED BLOOD CELLS [2]: 0 /100WBC | PLATELET COUNT [2]: 1322.17 x10E3/uL | ALANINE AMINOTRANSFERASE [2]: 48.83 u/L | ALBUMIN [2]: 4.27 G/DL | ALKALINE PHOSPHATASE [2]: 295.17 u/L | ASPARTATE AMINOTRANSFERASE [2]: 75.83 u/L | BLOOD UREA NITROGEN [2]: 15.5 mg/dL | CARBON DIOXIDE [2]: 30.5 mmol/L | CHLORIDE [2]: 102.33 MEQ/L | CHOLESTEROL [2]: 76.17 mg/dL | CREATINE PHOSPHOKINASE [2]: 205.5 u/L | CREATININE [2]: 0.2 mg/dL | GLUCOSE [2]: 149.67 mg/dL | LACTATE DEHYDROGENASE [2]: 124.5 u/L | LIPASE [2]: 10 u/L | PHOSPHORUS [2]: 10.93 mg/dL | POTASSIUM [2]: 6.59 MEQ/L | SODIUM [2]: 143.1 MEQ/L | TOTAL BILIRUBIN [2]: 0.2 mg/dL | TOTAL PROTEIN [2]: 6.05 G/DL | URIC ACID [2]: 1.45 mg/dL | ABSOLUTE BASOPHIL [3]: 0 CELLS/uL | ABSOLUTE EOSINOPHIL [3]: 0 CELLS/uL | ABSOLUTE LYMPHOCYTE [3]: 13518.33 CELLS/uL | ABSOLUTE MONOCYTE [3]: 372.33 CELLS/uL | ABSOLUTE SEGMENTED NEUTROPHIL [3]: 2242.67 CELLS/uL | BASOPHIL [3]: 0% | EOSINOPHIL [3]: 0% | ERYTHROCYTE COUNT [3]: 5.43 x10E6/uL | HEMATOCRIT [3]: 33.13% | HEMOGLOBIN [3]: 12.03 G/DL | LEUKOCYTE COUNT [3]: 16.13 x10E3/uL | LYMPHOCYTE [3]: 84.33% | MEAN CORPUSCULAR HEMOGLOBIN [3]: 22.17 pg | MEAN CORPUSCULAR HEMOGLOBIN CONCENTRATION [3]: 36.33 G/DL | MEAN CORPUSCULAR VOLUME [3]: 61.07 fL | MONOCYTE [3]: 2.33% | NEUTROPHIL [3]: 13.33% | NUCLEATED RED BLOOD CELLS [3]: 0 /100WBC | PLATELET COUNT [3]: 1126.33 x10E3/uL | ALANINE AMINOTRANSFERASE [3]: 50.33 u/L | ALBUMIN [3]: 3.67 G/DL | ALKALINE PHOSPHATASE [3]: 250.33 u/L | ASPARTATE AMINOTRANSFERASE [3]: 81.67 u/L | BLOOD UREA NITROGEN [3]: 18 mg/dL | CARBON DIOXIDE [3]: 24.33 mmol/L | CHLORIDE [3]: 104.33 MEQ/L | CHOLESTEROL [3]: 76.67 mg/dL | CREATINE PHOSPHOKINASE [3]: 276 u/L | CREATININE [3]: 0.18 mg/dL | GLUCOSE [3]: 175 mg/dL | LACTATE DEHYDROGENASE [3]: 84.67 u/L | LIPASE [3]: 8.67 u/L | PHOSPHORUS [3]: 11.43 mg/dL | POTASSIUM [3]: 6.05 MEQ/L | SODIUM [3]: 145.23 MEQ/L | TOTAL BILIRUBIN [3]: 0.13 mg/dL | TOTAL PROTEIN [3]: 5.67 G/DL | URIC ACID [3]: 2.13 mg/dL | ABSOLUTE BASOPHIL [4]: 0 CELLS/uL | ABSOLUTE EOSINOPHIL [4]: 164.67 CELLS/uL | ABSOLUTE LYMPHOCYTE [4]: 16889.67 CELLS/uL | ABSOLUTE MONOCYTE [4]: 1259.67 CELLS/uL | ABSOLUTE SEGMENTED NEUTROPHIL [4]: 6552.67 CELLS/uL | BASOPHIL [4]: 0% | EOSINOPHIL [4]: 0.67% | ERYTHROCYTE COUNT [4]: 5.49 x10E6/uL | HEMATOCRIT [4]: 33.1% | HEMOGLOBIN [4]: 12.6 G/DL | LEUKOCYTE COUNT [4]: 24.87 x10E3/uL | LYMPHOCYTE [4]: 68% | MEAN CORPUSCULAR HEMOGLOBIN [4]: 23.07 pg | MEAN CORPUSCULAR HEMOGLOBIN CONCENTRATION [4]: 38.1 G/DL | MEAN CORPUSCULAR VOLUME [4]: 60.43 fL | MONOCYTE [4]: 5% | NEUTROPHIL [4]: 26.33% | NUCLEATED RED BLOOD CELLS [4]: 0 /100WBC | PLATELET COUNT [4]: 1493 x10E3/uL | ALANINE AMINOTRANSFERASE [4]: 55.67 u/L | ALBUMIN [4]: 3.17 G/DL | ALKALINE PHOSPHATASE [4]: 330 u/L | ASPARTATE AMINOTRANSFERASE [4]: 87.67 u/L | BLOOD UREA NITROGEN [4]: 18.33 mg/dL | CARBON DIOXIDE [4]: 32 mmol/L | CHLORIDE [4]: 103.67 MEQ/L | CHOLESTEROL [4]: 77 mg/dL | CREATINE PHOSPHOKINASE [4]: 151 u/L | CREATININE [4]: 0.22 mg/dL | GLUCOSE [4]: 164 mg/dL | LACTATE DEHYDROGENASE [4]: 64 u/L | LIPASE [4]: 8 u/L | PHOSPHORUS [4]: 11.27 mg/dL | POTASSIUM [4]: 6.34 MEQ/L | SODIUM [4]: 145.63 MEQ/L | TOTAL BILIRUBIN [4]: 0.13 mg/dL | TOTAL PROTEIN [4]: 5.33 G/DL | URIC ACID [4]: 1.83 mg/dL
